Assay: Change of crystal form by heating, friction or suspension in a solvent
Format: physicochemical
Source text: In the present invention, for the discrimination of the crystal form, a powder X-ray diffraction measurement, a differential thermal analysis, ^13C CP/TOSS NMR, a Raman spectroscopy, and the like are effective, however, the method for the discrimination is not limited to these measurement methods.
• Apparatus: MXLabo (manufactured by Mac Science Corporation (present: Bruker AXS, Inc.)) • Ray source: Cu • Wavelength: 1.54056A • Goniometer: vertical-type goniometer • Tube voltage: 40.0 kV • Tube current: 30 mA • Measuring method: continuous method • Data range: 3.0400 to 40.0000 deg • Scanning axis: 2θ/θ • Sampling interval: 0.0400 deg • Scanning rate: 3.600 deg/min. • Emission slit: 1.00 deg • Scattering slit: 1.00 deg • Receiving slit: 0.15 mm • RSM: 0.80 mm
• Apparatus: TG 8120 (manufactured by Rigaku Corporation) • Temperature elevation: 20° C. to 300° C. at an elevation rate of 5° C./min • Atmosphere: Air • Reference: Al2O3 • Vessel: Al vessel • Sampling: 1 sec

Row | Compound | change of crystal form by heating | change of crystal form on suspending in a solvent and stirring (suspended in a solvent, stirred) | change of crystal form by heating or friction
1 | COc1cc(OC)nc(NC(=O)NS(=O)(=O)c2c(C3=NOCC(C)O3)c(Cl)nn2C)n1 (stereo not shown) [crystal form B, 3-chloro-N-(4,6-dimethoxypyrimidine-2-ylcarbamoyl)-1-methyl-4-(5-methyl-5,6-dihydro-1,4,2-dioxazine-3-yl)-1H-pyrazole-5-sulfonamide] | not observed | transits to be converted into the crystal form A | 
2 | COc1cc(OC)nc(NC(=O)NS(=O)(=O)c2c(C3=NOCC(C)O3)c(Cl)nn2C)n1 (stereo not shown) [crystal form A, 3-chloro-N-(4,6-dimethoxypyrimidine-2-ylcarbamoyl)-1-methyl-4-(5-methyl-5,6-dihydro-1,4,2-dioxazine-3-yl)-1H-pyrazole-5-sulfonamide] |  |  | not observed
3 | COc1cc(OC)nc(NC(=O)NS(=O)(=O)c2c(C3=NOCC(C)O3)c(Cl)nn2C)n1 (stereo not shown) [crystal form D, 3-chloro-N-(4,6-dimethoxypyrimidine-2-ylcarbamoyl)-1-methyl-4-(5-methyl-5,6-dihydro-1,4,2-dioxazine-3-yl)-1H-pyrazole-5-sulfonamide] | transits to the crystal form A |  | 
4 | COc1cc(OC)nc(NC(=O)NS(=O)(=O)c2c(C3=NOCC(C)O3)c(Cl)nn2C)n1 (stereo not shown) [crystal form E, 3-chloro-N-(4,6-dimethoxypyrimidine-2-ylearbamoyl)-1-methyl-4-(5-methyl-5,6-dihydro-1,4,2-dioxazine-3-yl)-1H-pyrazole-5-sulfonamide] |  |  | transits to the crystal form A
5 | COc1cc(OC)nc(NC(=O)NS(=O)(=O)c2c(C3=NOCC(C)O3)c(Cl)nn2C)n1 (stereo not shown) [crystal form F, 3-chloro-N-(4,6-dimethoxypyrimidine-2-ylcarbamoyl)-1-methyl-4-(5-methyl-5,6-dihydro-1,4,2-dioxazine-3-yl)-1H-pyrazole-5-sulfonamide] |  |  | transits to the crystal form A
6 | COc1cc(OC)nc(NC(=O)NS(=O)(=O)c2c(C3=NOCC(C)O3)c(Cl)nn2C)n1 (stereo not shown) [crystal form C, 3-chloro-N-(4,6-dimethoxypyrimidine-2-ylcarbamoyl)-1-methyl-4-(5-methyl-5,6-dihydro-1,4,2-dioxazine-3-yl)-1H-pyrazole-5-sulfonamide] |  |  | transits to the crystal form A or B

— US20120220461A1, “CRYSTAL FORMS OF SULFONYLUREA COMPOUND AND METHOD FOR PRODUCING THE SAME” (NISSAN CHEMICAL INDUSTRIES, LTD., priority 2009, published 2012)
